# Test results taken from publication PMC6378217, “The lysyl oxidase like 2/3 enzymatic inhibitor, PXS‐5153A, reduces crosslinks and ameliorates fibrosis” (Journal of Cellular and Molecular Medicine, 2018).
# Columns and labels:
# Recombinant human LOXL4 = target: T1, Recombinant human LOXL4 (Homo sapiens, UniProt Q96JB6); assay: Amplex-Red fluorometric enzymatic activity assay, recombinant human LOXL4; assay type: biochemical; settings: 30 minute pre-incubation; average of at least three experiments
# T1 construct: obtained from Dr. Fernando Rodríguez Pascual, university of Madrid, Spain (academic provider, not a vendor)
# T1 sequence (Q96JB6 25-756): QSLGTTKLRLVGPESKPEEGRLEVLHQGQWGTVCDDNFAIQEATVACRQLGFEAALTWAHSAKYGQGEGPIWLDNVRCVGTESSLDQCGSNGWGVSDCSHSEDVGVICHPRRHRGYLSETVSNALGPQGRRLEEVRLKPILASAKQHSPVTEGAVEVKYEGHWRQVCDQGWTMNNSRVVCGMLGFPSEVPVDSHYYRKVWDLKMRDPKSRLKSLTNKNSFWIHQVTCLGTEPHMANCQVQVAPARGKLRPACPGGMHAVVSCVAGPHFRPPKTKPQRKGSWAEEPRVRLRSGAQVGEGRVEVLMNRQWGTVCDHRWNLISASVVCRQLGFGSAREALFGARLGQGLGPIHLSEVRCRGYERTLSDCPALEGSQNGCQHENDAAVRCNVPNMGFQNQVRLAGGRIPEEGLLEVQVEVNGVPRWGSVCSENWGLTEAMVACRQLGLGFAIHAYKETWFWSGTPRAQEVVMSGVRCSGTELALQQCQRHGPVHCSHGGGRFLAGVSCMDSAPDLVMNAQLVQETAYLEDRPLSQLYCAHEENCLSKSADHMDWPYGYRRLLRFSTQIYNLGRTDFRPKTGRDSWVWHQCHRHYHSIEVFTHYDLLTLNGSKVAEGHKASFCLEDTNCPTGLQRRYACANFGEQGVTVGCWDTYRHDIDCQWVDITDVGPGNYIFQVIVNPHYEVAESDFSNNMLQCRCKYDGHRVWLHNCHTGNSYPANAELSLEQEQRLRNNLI
# Description: (§1) The measurement of the enzymatic activity of all lysyl oxidase family members was based on the detection of hydrogen peroxide with an Amplex‐Red oxidation assay, as described in Zhou et al26 Recombinant human semicarbazide sensitive amine oxidase (SSAO/VAP1), diamine oxidase (DAO) and monoamine oxidases A and B (MAO‐A and MAO‐B) assays were performed as previously described.27 For detailed enzymatic procedures, see supporting information.
# The measurement of the enzymatic activity of all lysyl oxidase family members was based on the detection of hydrogen peroxide with an Amplex-Red oxidation assay, as described in Zhou et al.[1]; miniaturised in 384 well format, with the appropriate combination of substrate and assay buffer for each individual enzyme. After a 30 minute pre-incubation of the enzyme at 37 °C with the test compound (or with different incubation times for the time-dependency assay), one volume of reaction mixture containing 120 μM Amplex Red (AR) (Life Technologies), 1.5 U/mL horseradish peroxidase (HRP) (Sigma-Aldrich) and the specific substrate was added to each sample. The relative fluorescence units (RFU) were then measured every 2.5 minutes for 30 minutes at 37°C, excitation 565 nm and emission 590, on a BMG Clariostar Microplate Reader. […]
# MAO-A = MAO-A (Homo sapiens, UniProt P21397); assay: MAO-A enzymatic activity assay; assay type: biochemical
# MAO-A, sequence (P21397 whole entry): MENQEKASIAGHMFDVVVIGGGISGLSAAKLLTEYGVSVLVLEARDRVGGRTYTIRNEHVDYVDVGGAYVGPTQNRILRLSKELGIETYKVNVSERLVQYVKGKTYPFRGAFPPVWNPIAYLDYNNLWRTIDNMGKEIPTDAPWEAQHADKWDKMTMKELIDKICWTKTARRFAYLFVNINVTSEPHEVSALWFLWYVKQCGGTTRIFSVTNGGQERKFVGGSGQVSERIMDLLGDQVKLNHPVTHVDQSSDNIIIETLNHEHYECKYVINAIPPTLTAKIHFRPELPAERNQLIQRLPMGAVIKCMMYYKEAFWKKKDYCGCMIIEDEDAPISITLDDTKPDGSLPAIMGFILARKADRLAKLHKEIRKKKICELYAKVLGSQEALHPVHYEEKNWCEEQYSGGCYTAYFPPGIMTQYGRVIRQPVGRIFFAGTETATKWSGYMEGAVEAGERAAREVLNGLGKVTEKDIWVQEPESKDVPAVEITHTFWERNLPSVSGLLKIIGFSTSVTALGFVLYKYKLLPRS
# Description: as §1
# Recombinant human semicarbazide sensitive amine oxidase (SSAO/VAP1), diamine oxidase (DAO) and monoamine oxidases A and B (MAO-A and MAO-B) assays were performed as previously described.
# Adrenergic β1 = Adrenergic β1 (Homo sapiens, UniProt P08588); assay: Eurofins Hit Profiling Screen; assay type: binding; settings: 10 μmol/L
# Adrenergic β1, sequence (P08588 whole entry): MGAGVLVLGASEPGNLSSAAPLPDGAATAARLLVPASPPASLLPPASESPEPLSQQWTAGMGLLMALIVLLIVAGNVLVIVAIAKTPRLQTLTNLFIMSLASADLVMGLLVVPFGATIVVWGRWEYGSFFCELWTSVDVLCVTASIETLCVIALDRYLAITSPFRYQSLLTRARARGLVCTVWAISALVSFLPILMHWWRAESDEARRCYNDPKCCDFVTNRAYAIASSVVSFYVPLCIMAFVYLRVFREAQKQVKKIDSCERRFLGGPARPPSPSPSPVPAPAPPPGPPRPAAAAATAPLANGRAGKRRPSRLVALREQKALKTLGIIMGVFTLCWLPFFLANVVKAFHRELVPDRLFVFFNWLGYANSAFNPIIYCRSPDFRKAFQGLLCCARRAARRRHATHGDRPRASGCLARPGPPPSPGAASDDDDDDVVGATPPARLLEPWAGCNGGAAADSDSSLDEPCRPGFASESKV
# Dopamine D1 = Dopamine D1 (Homo sapiens, UniProt P21728); assay: Eurofins Hit Profiling Screen; assay type: binding; settings: 10 μmol/L
# Dopamine D1, sequence (P21728 whole entry): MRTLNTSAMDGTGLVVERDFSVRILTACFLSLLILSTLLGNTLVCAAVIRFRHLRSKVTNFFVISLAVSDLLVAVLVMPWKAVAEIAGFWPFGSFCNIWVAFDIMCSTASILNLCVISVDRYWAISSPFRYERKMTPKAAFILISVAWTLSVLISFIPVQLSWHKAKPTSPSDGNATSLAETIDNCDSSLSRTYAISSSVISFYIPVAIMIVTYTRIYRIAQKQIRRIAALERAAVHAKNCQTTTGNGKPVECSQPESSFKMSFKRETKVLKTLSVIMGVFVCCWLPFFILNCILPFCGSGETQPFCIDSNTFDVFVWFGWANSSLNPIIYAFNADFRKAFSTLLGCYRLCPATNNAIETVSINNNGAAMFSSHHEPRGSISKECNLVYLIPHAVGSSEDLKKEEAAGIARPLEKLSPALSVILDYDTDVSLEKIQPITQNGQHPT
# LOXL2 = target: T2, LOXL2 (Homo sapiens, UniProt Q9Y4K0); assay: In vitro crosslinking assay; assay type: biochemical; design: purchased R&D Systems; settings: 200 nmol/L PXS-5153A, 20 nmol/L rhLOXL2 daily for 5 days, crosslinks on day 7
# T2 sequence (Q9Y4K0 26-774): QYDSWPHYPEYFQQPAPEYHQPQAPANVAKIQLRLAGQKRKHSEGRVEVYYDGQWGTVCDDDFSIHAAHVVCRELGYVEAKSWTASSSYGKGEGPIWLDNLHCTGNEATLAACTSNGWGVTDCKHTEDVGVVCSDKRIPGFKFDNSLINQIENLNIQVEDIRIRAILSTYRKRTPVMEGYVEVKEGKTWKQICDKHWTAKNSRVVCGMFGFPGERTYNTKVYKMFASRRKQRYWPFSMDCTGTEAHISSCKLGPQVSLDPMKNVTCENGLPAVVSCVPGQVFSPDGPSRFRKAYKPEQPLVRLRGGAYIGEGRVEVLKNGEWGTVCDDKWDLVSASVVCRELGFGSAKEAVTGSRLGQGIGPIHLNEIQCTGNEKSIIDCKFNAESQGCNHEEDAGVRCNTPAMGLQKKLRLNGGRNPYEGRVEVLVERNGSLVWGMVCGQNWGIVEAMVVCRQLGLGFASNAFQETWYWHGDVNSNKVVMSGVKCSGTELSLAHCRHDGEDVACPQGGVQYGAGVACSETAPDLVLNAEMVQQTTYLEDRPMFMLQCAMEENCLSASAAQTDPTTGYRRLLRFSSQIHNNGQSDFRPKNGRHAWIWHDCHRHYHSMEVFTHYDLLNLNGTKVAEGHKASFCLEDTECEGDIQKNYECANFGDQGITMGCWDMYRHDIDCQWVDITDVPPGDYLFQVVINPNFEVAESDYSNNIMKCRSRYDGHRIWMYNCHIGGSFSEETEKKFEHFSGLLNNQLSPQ
# Description: About 200 μL of 3 mg/mL collagen (rat tail, type I, Thermo Fisher) was combined with 800 μL of 50 mmol/L sodium borate buffer (pH 8.2) and 20 nmol/L of rhLOXL2 (with or without inhibitor, PXS‐5153A 200 nmol/L). Enzyme/inhibitor were replenished daily for 5 days. Samples were incubated at 37°C and crosslinks were extracted on day 7.
# About 10mg of freeze‐dried samples were reduced with NaBH4. Pellet then underwent acid hydrolysis in 6 mol/L HCl at 100°C for 24 hours. Hydroxyproline and crosslinks were extracted from the hydrolysate using an automated solid phase extraction system (Gilson GX‐271 ASPECA system). After extraction and drying, hydroxyproline and crosslinks were analysed by UHPLC‐ESI‐MS/MS on a Thermo Dionex UHPLC and TSQ Endura triple quad mass spectrometer. Total protein was quantified in the samples using a commercially available kit (QuickZyme Biosciences, Leiden, The Netherlands). For detailed procedures, see supporting information.
# Potassium Channel hERG = Potassium Channel hERG (Homo sapiens, UniProt Q12809); assay: Eurofins Hit Profiling Screen; assay type: binding; settings: 10 μmol/L
# Potassium Channel hERG, sequence (Q12809 whole entry): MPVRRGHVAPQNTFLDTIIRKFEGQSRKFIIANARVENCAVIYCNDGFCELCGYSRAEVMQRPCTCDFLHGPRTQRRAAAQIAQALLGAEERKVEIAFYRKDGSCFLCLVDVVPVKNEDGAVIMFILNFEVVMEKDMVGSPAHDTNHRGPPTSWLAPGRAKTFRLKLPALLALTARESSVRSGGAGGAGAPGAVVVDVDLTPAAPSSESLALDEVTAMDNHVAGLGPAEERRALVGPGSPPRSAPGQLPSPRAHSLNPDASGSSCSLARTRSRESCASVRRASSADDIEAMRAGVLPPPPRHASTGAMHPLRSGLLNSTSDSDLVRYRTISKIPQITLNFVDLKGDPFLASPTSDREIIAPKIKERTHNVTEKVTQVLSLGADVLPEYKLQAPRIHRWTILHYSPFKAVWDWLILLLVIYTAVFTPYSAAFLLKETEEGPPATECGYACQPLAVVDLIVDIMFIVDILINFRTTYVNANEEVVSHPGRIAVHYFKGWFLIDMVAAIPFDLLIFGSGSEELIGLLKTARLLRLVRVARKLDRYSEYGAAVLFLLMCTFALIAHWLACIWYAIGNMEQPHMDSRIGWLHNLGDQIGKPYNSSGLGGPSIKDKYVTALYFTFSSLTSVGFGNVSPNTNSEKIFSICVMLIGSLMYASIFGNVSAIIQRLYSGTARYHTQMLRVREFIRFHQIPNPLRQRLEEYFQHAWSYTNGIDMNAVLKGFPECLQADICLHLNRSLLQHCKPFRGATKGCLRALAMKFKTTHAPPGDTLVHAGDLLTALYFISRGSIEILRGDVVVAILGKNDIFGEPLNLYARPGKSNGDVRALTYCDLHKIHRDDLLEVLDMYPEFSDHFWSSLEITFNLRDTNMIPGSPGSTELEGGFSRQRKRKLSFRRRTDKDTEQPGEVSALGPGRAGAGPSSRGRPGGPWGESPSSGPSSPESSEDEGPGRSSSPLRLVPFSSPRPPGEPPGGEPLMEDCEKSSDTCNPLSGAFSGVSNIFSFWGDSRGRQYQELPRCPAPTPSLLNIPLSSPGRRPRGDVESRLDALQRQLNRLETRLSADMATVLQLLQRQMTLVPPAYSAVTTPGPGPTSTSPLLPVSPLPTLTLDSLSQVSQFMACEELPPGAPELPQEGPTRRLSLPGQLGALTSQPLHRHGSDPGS
# Adenosine A1 = Adenosine A1 (Homo sapiens, UniProt P30542); assay: Eurofins Hit Profiling Screen; assay type: binding; settings: 10 μmol/L
# Adenosine A1, sequence (P30542 whole entry): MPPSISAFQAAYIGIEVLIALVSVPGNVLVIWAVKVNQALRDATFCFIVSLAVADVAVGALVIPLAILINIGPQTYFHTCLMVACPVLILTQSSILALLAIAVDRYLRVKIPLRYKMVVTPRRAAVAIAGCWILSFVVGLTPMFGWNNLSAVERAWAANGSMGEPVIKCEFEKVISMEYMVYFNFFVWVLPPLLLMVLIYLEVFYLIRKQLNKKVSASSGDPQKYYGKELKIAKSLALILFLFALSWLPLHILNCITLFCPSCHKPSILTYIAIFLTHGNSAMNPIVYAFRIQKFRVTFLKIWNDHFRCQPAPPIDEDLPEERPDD
# Adrenergic α2A = Adrenergic α2A (Homo sapiens, UniProt P08913); assay: Eurofins Hit Profiling Screen; assay type: binding; settings: 10 μmol/L
# Adrenergic α2A, sequence (P08913 whole entry): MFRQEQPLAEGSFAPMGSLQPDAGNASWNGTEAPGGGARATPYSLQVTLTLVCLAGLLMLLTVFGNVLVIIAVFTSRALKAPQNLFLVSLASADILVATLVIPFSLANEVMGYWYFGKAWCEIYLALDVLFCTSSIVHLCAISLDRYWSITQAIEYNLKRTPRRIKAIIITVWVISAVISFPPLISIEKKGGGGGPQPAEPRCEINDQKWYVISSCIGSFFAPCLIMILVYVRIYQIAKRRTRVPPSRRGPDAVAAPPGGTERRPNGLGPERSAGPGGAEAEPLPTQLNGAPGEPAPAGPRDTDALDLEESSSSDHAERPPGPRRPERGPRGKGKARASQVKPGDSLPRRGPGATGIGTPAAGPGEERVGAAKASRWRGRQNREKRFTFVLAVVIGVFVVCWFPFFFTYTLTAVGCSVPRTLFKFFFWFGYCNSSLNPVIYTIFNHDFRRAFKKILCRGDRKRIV
# GABAA, Muscimol, Central = assay: Eurofins Hit Profiling Screen; assay type: binding; settings: 10 μmol/L
structure (smiles),measurement,setting,value
Cc1c(-c2cccc(S(=O)(=O)N(C)C)c2)c2ncccc2n1C/C(F)=C/CN.Cl.Cl [PXS-5153A],IC50,Recombinant human LOXL4,0.104 µM
same,pIC50 ± SD,Recombinant human LOXL4,7 ± 0.1
same,IC50,MAO-A,> 30 µM
same,% inhibition,Adrenergic β1,3%
same,% inhibition,Dopamine D1,6%
same,"crosslink formation DHLNL, HLNL, PYD, DPD",LOXL2,prevented all crosslink formation
same,% inhibition,Potassium Channel hERG,47%
same,% inhibition,Adenosine A1,9%
same,% inhibition,Adrenergic α2A,97%
same,% inhibition,"GABAA, Muscimol, Central",-7%
